Measurements: patent US20210138025A1, “CATIONIC PEPTIDES WITH IMMUNOMODULATORY AND/OR ANTI-BIOFILM ACTIVITIES” (priority 2018, published 2021)
No end group written: not given here.

Tests used:
Streptococcus suis (Ss) [1] = type: cell-based
Procedure: (§1) The following strains were assessed vs. Staphylococcus epidermidis (Se), Pseudomonas aeruginosa (Pa), Streptococcus dysgalactiae (Sd), Pasteurella multocida (Pm), Streptococcus agalactiae (Sa), Streptococcus uberis (Su), Streptococcus suis (Ss), Mannheimia haemolytica (Mh), Bordatella bronchiseptica (Bb), Histophilus somnus (Hs), and Staphylococcus pseudintermedius (Sp) (Table 18) for Minimal Inhibitory Concentrations (MIC). Italics=excellent activity (less than or equal to 4 μg/ml).

Histophilus somnus (Hs) [2] = type: cell-based
Procedure: as §1

[3] = tested on: Pasteurella multocida (Pm); type: cell-based
Procedure: as §1

[4] = tested on: Staphylococcus pseudintermedius (Sp); type: cell-based
Procedure: as §1

[5] = tested on: Streptococcus uberis (Su); type: cell-based
Procedure: as §1

[6] = tested on: Staphylococcus epidermidis (Se); type: cell-based
Procedure: as §1

[7] = tested on: Mannheimia haemolytica (Mh); type: cell-based
Procedure: as §1

[8] = tested on: Pseudomonas aeruginosa (Pa); type: cell-based
Procedure: as §1

[9] = tested on: Bordatella bronchiseptica (Bb); type: cell-based
Procedure: as §1

[10] = tested on: Streptococcus agalactiae (Sa); type: cell-based
Procedure: as §1

[11] = tested on: Streptococcus dysgalactiae (Sd); type: cell-based
Procedure: as §1

[12] = tested on: planktonic methicillin resistant S. aureus; assay: microbe, parasite or virus in culture; type: cell-based, Staphylococcus aureus; conditions: planktonic methicillin resistant
Streptococcus suis (Ss) [13] = type: cell-based; remark: listed apart in the source
Procedure: (§2) The same strains as in Table 18 were assessed for Minimal Biofilm Inhibitory Concentrations (MBIC) (Table 19). Italics=excellent activity (less than or equal to 4 μg/ml). ND=Not determined. Peptides 3013, 3015 and 3016 inhibited biofilm growth in the largest number of bacterial strains (5, 5 and 6 out of 13 strains, respectively).

Histophilus somnus (Hs) [14] = type: cell-based; remark: listed apart in the source
Procedure: as §2

[15] = tested on: Pasteurella multocida (Pm); type: cell-based; remark: listed apart in the source
Procedure: as §2

[16] = tested on: Staphylococcus pseudintermedius (Sp); type: cell-based; remark: listed apart in the source
Procedure: as §2

[17] = tested on: Streptococcus uberis (Su); type: cell-based; remark: listed apart in the source
Procedure: as §2

[18] = tested on: Staphylococcus epidermidis (Se); type: cell-based; remark: listed apart in the source
Procedure: as §2

[19] = tested on: Mannheimia haemolytica (Mh); type: cell-based; remark: listed apart in the source
Procedure: as §2

[20] = tested on: Pseudomonas aeruginosa (Pa); type: cell-based; remark: listed apart in the source
Procedure: as §2

[21] = tested on: Bordatella bronchiseptica (Bb); type: cell-based; remark: listed apart in the source
Procedure: as §2

[22] = tested on: Streptococcus agalactiae (Sa); type: cell-based; remark: listed apart in the source
Procedure: as §2

[23] = tested on: Streptococcus dysgalactiae (Sd); type: cell-based; remark: listed apart in the source
Procedure: as §2

S. aureus (Sau) [24] = type: cell-based; conditions: Sau
E. coli (Ec) [25] = type: cell-based; conditions: Ec
Procedure: as §2
(§3) In addition, several peptides expressed preferential activity vs. biofilms (MBIC) cf. planktonic cells (MIC) (Table 20).

S. aureus (Sau) [26] = type: cell-based; conditions: Sau; remark: listed apart in the source
Procedure: as §2, §3

PBMCs = assay: Cytotoxicity towards PBMCs, lactate dehydrogenase (LDH) release assay (Tables 6, 7); conditions: SPOT synthesized peptide ~25 μM, PBMCs from 3 human donors; Table 6
E. coli (Ec) [27] = type: cell-based; conditions: Ec; remark: listed apart in the source

Substance | MIC Ss (Streptococcus suis (Ss) [1]) [µg/mL] | MIC Hs (Histophilus somnus (Hs) [2]) [µg/mL] | MIC Pm [3] [µg/mL] | MIC Sp [4] [µg/mL] | MIC Su [5] [µg/mL] | MIC Se [6] [µg/mL] | MIC Mh [7] [µg/mL] | MIC Pa [8] [µg/mL] | MIC Bb [9] [µg/mL] | MIC Sa [10] [µg/mL] | MIC Sd [11] [µg/mL] | MIC (μM) MHB [12] [µM] | MIC (μM) TSB with 1% Glucose [12] [µM] | MBIC (Streptococcus suis (Ss) [13]) [µg/mL] | MBIC (Histophilus somnus (Hs) [14]) [µg/mL] | MBIC [15] [µg/mL] | MBIC [16] [µg/mL] | MBIC [17] [µg/mL] | MBIC [18] [µg/mL] | MBIC [20] [µg/mL] | also measured
LWQLWLKLKLKG-NH2 [Peptide 3013, LWQLWLKLKLKG] | 64 | 2 | 32 | <1 | 4 | 2 | >64 | >64 | 16 | 2 | 2 | 32 | >64 | 16 | 4 | 2 | 1 | 8 | >64 | >64 | MBIC [19]: >64 µg/mL; MBIC [21]: >64 µg/mL; MBIC [22]: 32 µg/mL; MBIC [23]: 2 µg/mL; MIC S. aureus (S. aureus (Sau) [24]): >64 µg/mL; MIC Sau (S. aureus (Sau) [24]): >64 µg/mL; MBIC (E. coli (Ec) [25]): >64 µg/mL; MBIC E. coli (E. coli (Ec) [25]): >64 µg/mL; MBIC (S. aureus (Sau) [26]): 32 µg/mL; MBIC S. aureus (S. aureus (Sau) [26]): 32 µg/mL; % Toxicity (LDH Release) (PBMCs): 14.1%; MIC E. coli (E. coli (Ec) [27]): >64 µg/mL; MIC Ec (E. coli (Ec) [27]): >64 µg/mL
KIVIRIILQVIK-NH2 [Peptide 3015, KIVIRIILQVIK] | 64 | >64 | 64 | 16 | 64 | >64 | >64 | 64 | 64 | >64 | 32 | 64 | >64 | 64 | 16 | 1 | 8 | 4 | 2 | 32 | MBIC [19]: 16 µg/mL; MBIC [21]: >64 µg/mL; MBIC [22]: >64 µg/mL; MBIC [23]: 4 µg/mL; MIC S. aureus (S. aureus (Sau) [24]): >64 µg/mL; MIC Sau (S. aureus (Sau) [24]): >64 µg/mL; MBIC (E. coli (Ec) [25]): 64 µg/mL; MBIC E. coli (E. coli (Ec) [25]): 64 µg/mL; MBIC (S. aureus (Sau) [26]): 64 µg/mL; MBIC S. aureus (S. aureus (Sau) [26]): 64 µg/mL; % Toxicity (LDH Release) (PBMCs): −3.8%; MIC E. coli (E. coli (Ec) [27]): >64 µg/mL; MIC Ec (E. coli (Ec) [27]): >64 µg/mL
QLARLARVVWGL-NH2 [Peptide 3010, QLARLARVVWGL] | >64 | 64 | >64 | 64 | 64 | >64 | >64 | >64 | >64 | >64 | 32 | >64 | >64 | >64 | 64 | 4 | 64 | 32 | >64 | >64 | MBIC [19]: >64 µg/mL; MBIC [21]: >64 µg/mL; MBIC [22]: >64 µg/mL; MBIC [23]: 16 µg/mL; MIC S. aureus (S. aureus (Sau) [24]): >64 µg/mL; MIC Sau (S. aureus (Sau) [24]): >64 µg/mL; MBIC (E. coli (Ec) [25]): 32 µg/mL; MBIC E. coli (E. coli (Ec) [25]): 32 µg/mL; MBIC (S. aureus (Sau) [26]): 64 µg/mL; MBIC S. aureus (S. aureus (Sau) [26]): 64 µg/mL; % Toxicity (LDH Release) (PBMCs): −2.4%; MIC E. coli (E. coli (Ec) [27]): >64 µg/mL; MIC Ec (E. coli (Ec) [27]): >64 µg/mL
AVAKWALKLWKQ-NH2 [Peptide 3009, AVAKWALKLWKQ] | >64 | 64 | >64 | 4 | 32 | >64 | >64 | >64 | >64 | >64 | 32 | >64 | >64 | 16 | 16 | 16 | 8 | 16 | >64 | >64 | MBIC [21]: 64 µg/mL; MBIC [22]: >64 µg/mL; MBIC [23]: 16 µg/mL; MIC S. aureus (S. aureus (Sau) [24]): >64 µg/mL; MIC Sau (S. aureus (Sau) [24]): >64 µg/mL; MBIC (E. coli (Ec) [25]): 32 µg/mL; MBIC E. coli (E. coli (Ec) [25]): 32 µg/mL; MBIC (S. aureus (Sau) [26]): 64 µg/mL; MBIC S. aureus (S. aureus (Sau) [26]): 64 µg/mL; % Toxicity (LDH Release) (PBMCs): −3.2%; MIC E. coli (E. coli (Ec) [27]): >64 µg/mL; MIC Ec (E. coli (Ec) [27]): >64 µg/mL
